In general, IC50 refers to the point on the concentration scale where inhibition reaches its midpoint. A high value points to lower potency.

This note sets out measurements from patent publication US20260144883A1, “ANTI-TROP2/EGFR ANTIBODIES AND USES THEREOF” (XADCERA BIOPHARMACEUTICAL (SUZHOU) CO., LTD., priority 2022, published 2026).

Holding throughout (experiment): In vitro killing activity (CellCounting-Lite 2.0, 7 days)
Holding throughout (format): cell-based

The subject of one test is A431 cells. The conditions noted are these: Homo sapiens, A-431, 168 h.
Another test concerns Panc 02.03 cells. The settings on record: Homo sapiens, Panc 02.03, 168 h.
In the next test the test system is NCI-H292 cells. The settings on record: Homo sapiens, 168 h.
For the next test, the system named is HCC827 cells. The conditions noted are these: Homo sapiens, 168 h.

In the case of `CC[C@@]1(O)C(=O)OCc2c1cc1n(c2=O)Cc2c-1nc1ccc(N)c3c1c2CCO3` [CPT2, (S)-4-amino-9-ethyl-9-hydroxy-1,9,12,15-tetrahydro-13H-pyrano[4,3,2-de]pyrano[3′,4′:6,7]indolizino[1,2-b]quinoline-10,13(2H)-dione], the IC50 with A431 cells was 1.38 nM; in the test on Panc 02.03 cells, 0.981 nM; with NCI-H292 cells it was 0.728 nM; in the test with HCC827 cells, 1.69 nM.
